Patent publication US20230126310A1 (priority 2020, published 2023)
Where two headings read alike, the source gives them in different places.

System: SARS-CoV-2
Details: for % Inh. (% Inhibition of SARS-CoV-2): 10 µM

Cc1nc(C#Cc2ccnc(Cl)c2)c(C)n1-c1ccc(OC(F)(F)F)cc1 [CTEP (RO4956371)]
% Inh. (% Inhibition of SARS-CoV-2): 59.7%

CCN(CC)CCCCNc1ncc2cc(-c3c(Cl)cccc3Cl)c(NC(=O)NC(C)(C)C)nc2n1 [PD-161570]
% Inh. (% Inhibition of SARS-CoV-2): 108.1%

C=CC(=O)Nc1ccc2ncnc(Nc3cccc(Br)c3)c2c1 [PD168393]
% Inh. (% Inhibition of SARS-CoV-2): 51.5%

N#Cc1ccc(-c2csc(NN=C3CCCC3)n2)cc1 [remodelin]
% Inh. (% Inhibition of SARS-CoV-2): 99.4%

Cc1cc(-c2nc3cc(F)ccc3s2)ccc1NC(=O)[C@@H](N)CCCCN.Cl.Cl [phortress]
% Inh. (% Inhibition of SARS-CoV-2): 67.1%

CCCCCCCCCCCCCCCC[N+](C)(C)C.[Br-] [CETRIMONIUM BROMIDE]
% Inh. (% Inhibition of SARS-CoV-2): 87.7%

CCN(CC)CC1CCN(c2ncc3ncnc(Nc4ccc(F)c(Cl)c4)c3n2)CC1.Cl.Cl [BIBU-1361]
% Inh. (% Inhibition of SARS-CoV-2): 78.5%

Clc1ccc(N/N=C(\c2ccccc2)c2ccccn2)nc1 [JIB04 (NSC693627)]
% Inh. (% Inhibition of SARS-CoV-2): 106.4%

CC1(C)CC(=O)c2c(C(F)(F)F)nn(-c3ccc(C(N)=O)c(N[C@H]4CC[C@H](OC(=O)CN)CC4)c3)c2C1 [PF-04929113 (SNX-5422)]
% Inh. (% Inhibition of SARS-CoV-2): 91.3%

O=C(NC1CCN(Cc2ccccc2)CC1)c1ccc(I)cc1 [4-IBP]
% Inh. (% Inhibition of SARS-CoV-2): 89.9%

COc1cc2nc(C3CC3)nc(N3CCN(c4ccccc4OC)CC3)c2cc1OC [ML314]
% Inh. (% Inhibition of SARS-CoV-2): 87.7%

O=C1NC(=O)/C(=C/c2cccc(C(F)(F)F)c2)S1 [SMI-4a]
% Inh. (% Inhibition of SARS-CoV-2): 89.9%

O=C(Nc1ccc(S(=O)(=O)C(F)(F)F)cc1)C1=CCN(c2ncccc2C(F)(F)F)CC1 [A-784168]
% Inh. (% Inhibition of SARS-CoV-2): 60.3%

O=C(Nc1ccccc1Br)N[C@@H]1CCN(c2ccc(C(F)(F)F)cn2)C1 [SB705498]
% Inh. (% Inhibition of SARS-CoV-2): 64.6%

O=C1NC(=O)/C(=C/c2ccc3nccc(-c4ccncc4)c3c2)S1 [GSK1059615]
% Inh. (% Inhibition of SARS-CoV-2): 92.4%

NI-57
% Inh. (% Inhibition of SARS-CoV-2): 78.3%

Cl.Cl.Fc1ccc(C(OCCN2CCN(C/C=C/c3ccccc3)CC2)c2ccc(F)cc2)cc1 [GBR-13069]
% Inh. (% Inhibition of SARS-CoV-2): 66.7%

CN1CC[C@@H](c2c(O)cc(O)c3c(=O)cc(-c4ccccc4Cl)oc23)[C@@H]1CO.Cl [P276-00]
% Inh. (% Inhibition of SARS-CoV-2): 94.4%

CC(C)(C)c1cc(C(=O)/C(C#N)=N/Nc2cccc(Cl)c2)no1 [ESI-09]
% Inh. (% Inhibition of SARS-CoV-2): 78.0%

Cc1nc(NC(=O)N2CCC[C@H]2C(N)=O)sc1-c1csc(C(C)(C)C)n1 [A66]
% Inh. (% Inhibition of SARS-CoV-2): 54.4%

N#Cc1ccc(N2N=C3c4ccc(C(=O)O)cc4CC[C@@H]3[C@@H]2C2CCCC2)cc1Cl [PF-03882845]
% Inh. (% Inhibition of SARS-CoV-2): 58.6%

CC(C)[C@H]1c2ccc(F)cc2CC[C@@]1(CCN(C)CCCc1nc2ccccc2[nH]1)OC(=O)C1CC1 [NNC-55-0396]
% Inh. (% Inhibition of SARS-CoV-2): 58.1%

CNc1ncc2cc(-c3cc(NC(=O)NCCC(C)(C)C)c(F)cc3C)c(C)nc2n1 [LY3009120]
% Inh. (% Inhibition of SARS-CoV-2): 101.6%

COc1ccc(S(=O)(=O)N(CCO)c2ccccc2CN(C)C/C=C/c2ccc(Cl)cc2)cc1 [KN-93]
% Inh. (% Inhibition of SARS-CoV-2): 88.4%

COc1ccc(NC(=O)c2ccc(-c3ccc(-c4noc(C)n4)cc3C)cc2)cc1OCCN(C)C [SB-216641]
% Inh. (% Inhibition of SARS-CoV-2): 57.6%

COc1cc(SC)ccc1C(=O)N1CCC(Cc2ccccc2)CC1 [JX-401]
% Inh. (% Inhibition of SARS-CoV-2): 71.2%

N[C@H]1CCN(O)C1=O [HA-966-(S)-(−)]
% Inh. (% Inhibition of SARS-CoV-2): 52.3%

O=C(Cc1ccc(-c2ccc(OCCN3CCOCC3)cc2)cn1)NCc1ccccc1 [KX2-391]
% Inh. (% Inhibition of SARS-CoV-2): 79.9%

COc1cc(Br)c(Nc2nc(-c3c(C)nc4ncccn34)cs2)c(Br)c1 [PTC-209]
% Inh. (% Inhibition of SARS-CoV-2): 103.6%

Cc1ccc(Nc2ncc3c(n2)N(C)C(=O)N(c2cc(NC(=O)c4cccc(C(F)(F)F)c4)ccc2C)C3)cn1 [GNF-7]
% Inh. (% Inhibition of SARS-CoV-2): 107.6%

C[C@H](NC(=O)c1sccc1OCc1ccc(Cl)cc1)c1ccccc1 [AS-1949490]
% Inh. (% Inhibition of SARS-CoV-2): 103.1%

SNS-314 methanesulfonate
% Inh. (% Inhibition of SARS-CoV-2): 81.4%

COc1ccc(OC)c(CN(C(C)=O)c2cc(F)ccc2Oc2ccccc2)c1 [DAA-1106]
% Inh. (% Inhibition of SARS-CoV-2): 91.0%

OC12C3C4CC5C6C4C1C6C(C53)N2CCc1cccc(F)c1 (centres unmarked) [TC1]
% Inh. (% Inhibition of SARS-CoV-2): 53.2%

COc1ccc(-c2ccc3c(N4CCOC[C@@H]4C)nc(N4CCOC[C@@H]4C)nc3n2)cc1CO [AZD8055]
% Inh. (% Inhibition of SARS-CoV-2): 105.2%

TC-I-2014
% Inh. (% Inhibition of SARS-CoV-2): 97.8%

C[n+]1c2cc(N)ccc2cc2ccc(N)cc21.[Cl-] [ACRIFLAVINIUM HYDROCHLORIDE]
% Inh. (% Inhibition of SARS-CoV-2) (HYDROCHLORIDE): 99.5%
% Inh. (% Inhibition of SARS-CoV-2) (listed as Acriflavine hydrochloride, HYDROCHLORIDE): 69.4%

Taltobulin (trifluoroacetate)
% Inh. (% Inhibition of SARS-CoV-2): 83.8%

COc1ccc(CC2NCCc3c2[nH]c2ccc(C)cc32)c(Cl)c1OC (centres unmarked) [LY266097]
% Inh. (% Inhibition of SARS-CoV-2): 89.3%

CN(C)C(=O)c1ccc(S(=O)(=O)c2ccc(NC(=O)[C@@](C)(O)C(F)(F)F)c(Cl)c2)cc1 [AZD7545]
% Inh. (% Inhibition of SARS-CoV-2): 82.4%

COC(=O)Nc1ccc(-c2nc(N3CCOCC3)c3cnn(C4CCN(Cc5cccnc5)CC4)c3n2)cc1 [WYE-687]
% Inh. (% Inhibition of SARS-CoV-2): 105.8%

CNc1cc2c(Nc3cccc(Br)c3)ncnc2cn1 [PD-158780]
% Inh. (% Inhibition of SARS-CoV-2): 98.3%

Afatinib (dimaleate)
% Inh. (% Inhibition of SARS-CoV-2): 60.2%

COc1ncc2cc(C(=O)Nc3cc(C(=O)NCc4cccc(Cl)c4)ccc3Cl)c(=O)[nH]c2n1 [TC-S-7004]
% Inh. (% Inhibition of SARS-CoV-2): 77.3%

c1ccc(C(NCCNC(c2ccccc2)c2ccccc2)c2ccccc2)cc1 [AMN-082]
% Inh. (% Inhibition of SARS-CoV-2): 71.9%

CC(C)CNc1ccnc(NCc2csc(-c3ccccc3)n2)n1 [KHS-101]
% Inh. (% Inhibition of SARS-CoV-2): 91.2%

CCCCCCCC/C=C/CCCCCCCC(=O)OC[C@H]1O[C@@H](n2ccc(N)nc2=O)C(F)(F)[C@@H]1O [Gemcitabine (elaidate)]
% Inh. (% Inhibition of SARS-CoV-2): 111.3%

c1cc2c(cc1C1CCCCC1)c1c3n2CCNC3CCC1 (centres unmarked) [tetrindole]
% Inh. (% Inhibition of SARS-CoV-2): 75.2%

Skepinone-L
% Inh. (% Inhibition of SARS-CoV-2): 86.1%

O=C1OC2(c3cc(I)c(O)c(I)c3Oc3c2cc(I)c(O)c3I)c2c(Cl)c(Cl)c(Cl)c(Cl)c21 [rose-bengal-lactone]
% Inh. (% Inhibition of SARS-CoV-2): 57.6%

CC(C)(O)c1ccn2c(-c3ccc(F)c(-c4ccc(F)cc4C#N)c3)cnc2c1F [TP-003]
% Inh. (% Inhibition of SARS-CoV-2): 100.8%

CCC(=O)N1CCN(c2ccc(-n3c(=O)ccc4cnc5ccc(-c6cnc7ccccc7c6)cc5c43)cc2C(F)(F)F)CC1 [Torin 1]
% Inh. (% Inhibition of SARS-CoV-2): 75.3%

CCOC(=O)c1c(C)[nH]c2ccc3c(c12)CN1CCc2cc(OC)ccc2C1O3 (centres unmarked) [PD-102807]
% Inh. (% Inhibition of SARS-CoV-2): 121.8%

Cc1cc(N2CCOCC2)ccc1Nc1nc(NC2CCCCC2)c2[nH]cnc2n1 [MPI-0479605]
% Inh. (% Inhibition of SARS-CoV-2): 61.2%

c1ccc(C(NCc2cccnc2)(c2ccccc2)c2ccccc2)cc1 [UCL-2077]
% Inh. (% Inhibition of SARS-CoV-2): 70.7%

verteporfin
% Inh. (% Inhibition of SARS-CoV-2): 139.9%

O=C1/C(=C/c2ccccc2)C[C@@]2(O)[C@H]3Cc4ccc(O)c5c4[C@@]2(CCN3CC2CC2)[C@H]1O5 [BNTX]
% Inh. (% Inhibition of SARS-CoV-2): 77.3%

CCOC(=O)N1CCC(=C2c3ccc(Cl)cc3CCc3cccnc32)CC1 [LORATADINE]
% Inh (% inhibition of virus infection) (comparative experiments, Examples 1 and 2): 91.4%

Nc1nc(OCC2CCCCC2)c2[nH]cnc2n1 [NU-2058]
% Inh. (% Inhibition of SARS-CoV-2): 51.9%

CNC[C@H](O)[C@@H](O)[C@H](O)[C@H](O)CO.CNC[C@H](O)[C@@H](O)[C@H](O)[C@H](O)CO.C[C@@H](O[C@H]1OCCN(Cc2nn(P(=O)(O)O)c(=O)[nH]2)[C@H]1c1ccc(F)cc1)c1cc(C(F)(F)F)cc(C(F)(F)F)c1 [Fosaprepitant dimeglumine salt]
% Inh. (% Inhibition of SARS-CoV-2): 78.3%

Cc1ccc(-c2nn(C(C)(C)C)c3ncnc(N)c23)cc1 [PP-1]
% Inh. (% Inhibition of SARS-CoV-2): 121.9%

C[C@@H]1COCCN1c1cc(C2(S(C)(=O)=O)CC2)nc(-c2cccc3[nH]ccc23)n1 [AZ20]
% Inh. (% Inhibition of SARS-CoV-2): 100.0%

CCCCC1CCC(c2nc(-c3ccncc3)no2)CC1 (centres unmarked) [PSN-375963]
% Inh. (% Inhibition of SARS-CoV-2): 83.9%

COc1ccc(-c2csc(NC(=O)[C@H]3CCCCN3S(=O)(=O)c3ccc(C)cc3)n2)cc1 [ML-277]
% Inh. (% Inhibition of SARS-CoV-2): 99.3%

Cc1ccc2c(=O)c3ccccc3n(CCCN)c2c1C.O=C(O)/C=C\C(=O)O [ER-27319 maleate]
% Inh. (% Inhibition of SARS-CoV-2): 101.0%

CCC(C)C1O[C@]2(C=C[C@@H]1C)C[C@@H]1CC(C/C=C(\C)[C@@H](OC3C[C@H](OC)[C@@H](OC4C[C@H](OC)[C@@H](O)[C@H](C)O4)[C@H](C)O3)[C@@H](C)/C=C/C=C3\COC4[C@H](O)C(C)=CC(C(=O)O1)[C@]34O)O2 (some centres unmarked) [ABAMECTIN (avermectin B1a)]
% Inh. (% Inhibition of SARS-CoV-2): 108.9%

Cc1sc2c(c1C)C(c1ccc(Cl)cc1)=N[C@@H](CC(=O)Nc1ccc(OCCOCCOCCOCCNc3cccc4c3C(=O)N(C3CCC(=O)NC3=O)C4=O)cc1)c1nnc(C)n1-2 (some centres unmarked) [ARV-825]
% Inh. (% Inhibition of SARS-CoV-2): 52.8%
